What all share (assay type): cell-based
Test [1] deals with human adenosine receptor (adenosine 2a) (Homo sapiens, UniProt P29274). Briefly: Agonist activity against adenosine 2a receptor subtype (CHO cells, cAMP response element/SPAP reporter). The conditions noted are these: transfected CHO cells; effect on basal levels of cAMP reflected by SPAP; ratio to NECA. Here is the method: (§1) Compounds of the invention were tested for in vitro and in vivo biological activity in accordance with the following screens: • (1) Agonist activity against adenosine 2a, adenosine 1 and adenosine 3 receptor subtypes. Agonist selectivity of compounds against other human adenosine receptors was determined using Chinese hamster ovary (CHO) cells transfected with the gene for the relevant human adenosine receptor following a method based on that of Castanon and Spevak, 1994 . The CHO cells were also transfected with cyclic AMP response elements promoting the gene for secreted placental alkaline phosphatase (SPAP) (Wood, 1995). The effect of test compounds was determined by their effects on basal levels of CAMP (A2a) or on forskolin-enhanced cAMP (A1 and A3) as reflected by changes in levels of SPAP. EC50 values for compounds were then determined as a ratio to that of the non-selective agonist N-ethyl carboxamide adenosine (NECA).

The target of test [2] is T1, human adenosine receptor (adenosine 3) (Homo sapiens, UniProt P0DMS8).
T1 sequence (P0DMS8 1-318): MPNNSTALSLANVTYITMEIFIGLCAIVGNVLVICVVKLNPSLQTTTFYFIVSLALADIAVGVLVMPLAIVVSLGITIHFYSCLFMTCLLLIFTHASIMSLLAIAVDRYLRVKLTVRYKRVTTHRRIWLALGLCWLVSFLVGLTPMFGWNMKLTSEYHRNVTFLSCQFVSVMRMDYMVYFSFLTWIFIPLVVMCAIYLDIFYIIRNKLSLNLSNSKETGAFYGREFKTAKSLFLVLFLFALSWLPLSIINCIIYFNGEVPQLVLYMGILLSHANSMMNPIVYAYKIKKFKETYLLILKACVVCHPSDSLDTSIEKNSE
Briefly: Agonist activity against adenosine 3 receptor subtype (CHO cells, cAMP response element/SPAP reporter). The following applies: transfected CHO cells; effect on forskolin-enhanced cAMP reflected by SPAP; ratio to NECA. How it is done:
as §1

Test [3] addresses T2, human adenosine receptor (adenosine 1) (Homo sapiens, UniProt P30542).
T2 sequence (P30542 1-326): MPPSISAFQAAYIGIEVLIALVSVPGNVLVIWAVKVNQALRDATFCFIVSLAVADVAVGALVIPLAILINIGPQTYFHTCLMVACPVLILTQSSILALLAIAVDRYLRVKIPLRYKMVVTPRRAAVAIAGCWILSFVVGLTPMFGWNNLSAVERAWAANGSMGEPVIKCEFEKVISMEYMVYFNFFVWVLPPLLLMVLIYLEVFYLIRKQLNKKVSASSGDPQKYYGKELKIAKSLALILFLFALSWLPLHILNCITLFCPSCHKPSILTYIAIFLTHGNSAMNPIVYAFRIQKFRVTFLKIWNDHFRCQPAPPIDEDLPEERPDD
Briefly: Agonist activity against adenosine 1 receptor subtype (CHO cells, cAMP response element/SPAP reporter). The conditions noted are these: transfected CHO cells; effect on forskolin-enhanced cAMP reflected by SPAP; ratio to NECA. Here is the method:
as §1

Where only a bound is given, the exact number is not on record here.

human adenosine receptor (adenosine 2a), sequence (P29274 whole entry): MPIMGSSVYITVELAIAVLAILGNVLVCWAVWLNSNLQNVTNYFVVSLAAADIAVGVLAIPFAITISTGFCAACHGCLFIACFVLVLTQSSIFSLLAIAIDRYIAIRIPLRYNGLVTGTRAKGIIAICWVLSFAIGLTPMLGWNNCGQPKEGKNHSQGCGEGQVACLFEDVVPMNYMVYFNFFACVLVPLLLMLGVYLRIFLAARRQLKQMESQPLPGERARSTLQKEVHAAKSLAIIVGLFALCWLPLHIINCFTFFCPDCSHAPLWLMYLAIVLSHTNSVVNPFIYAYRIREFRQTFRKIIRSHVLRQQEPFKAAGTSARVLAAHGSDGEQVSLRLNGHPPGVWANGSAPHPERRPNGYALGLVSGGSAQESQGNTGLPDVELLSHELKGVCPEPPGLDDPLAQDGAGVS

As to `O=CO.O[C@@H]1[C@H](O)[C@@H](c2nnc[nH]2)O[C@H]1n1cnc2c(NCC(c3ccccc3)c3ccccc3)nc(NC3CCCC3)nc21` [Example 6, (2R,3R,4S,5R)-2-[2-Cyclopentylamino-6-(2,2-diphenyl-ethylamino)-purin-9-yl]-5-(4H-[1,2,4]triazol-3-yl)-tetrahydro-furan-3,4-diol formate], the “A2a; EC50 values as a ratio of that of NECA” value (“A2a; EC50 values as a ratio” below) in test [1] is reported as 16.96. Besides, the “A3; EC50 values as a ratio of that of NECA” value (“A3; EC50 values as a ratio” for short) in test [2] is on record as over 305. For the same compound, the “A1; EC50 values as a ratio of that of NECA” value (“A1; EC50 values as a ratio” for short) in test [3] came to 1627.

In the case of `O=CO.O[C@@H]1[C@H](O)[C@@H](c2nnc[nH]2)O[C@H]1n1cnc2c(NCC(c3ccccc3)c3ccccc3)nc(NCCc3ccccn3)nc21` [Example 5, (2R,3R,4S,5R)-2-[6-(2,2-Diphenyl-ethylamino)-2-(2-pyridin-2-yl-ethylamino)-purin-9-yl]-5-(4H-[1,2,4]triazol-3-yl)-tetrahydro-furan-3,4-diol formate], in test [1], the “A2a; EC50 values as a ratio” value came to 19.3. Also, the “A3; EC50 values as a ratio” value in test [2] was over 397. Further, the “A1; EC50 values as a ratio” value in test [3] is on record as 3329.

Take `O=CO.O[C@@H]1[C@H](O)[C@@H](c2nnc[nH]2)O[C@H]1n1cnc2c(NCC(c3ccccc3)c3ccccc3)nc(N[C@@H]3CCNC3)nc21` [Example 3, (2R,3R,4S,5R)-2-[6-(2,2-Diphenyl-ethylamino)-2-(pyrrolidin-3R-ylamino)-purin-9-yl]-5-(4H-[1,2,4]triazol-3-yl)-tetrahydro-furan-3,4-diol formate]: the “A2a; EC50 values as a ratio” value in test [1] is 10.49. Further, the “A3; EC50 values as a ratio” value in test [2] is over 306. Besides, the “A1; EC50 values as a ratio” value in test [3] worked out at 586.92.

As to `N[C@H]1CC[C@H](Nc2nc(NCC(c3ccccc3)c3ccccc3)c3ncn([C@@H]4O[C@H](c5nnc[nH]5)[C@@H](O)[C@H]4O)c3n2)CC1.O=CO` [Example 1, (2R,3R,4S,5R)-2-[2-(trans-4-Amino-cyclohexylamino)-6-(2,2-diphenyl-ethylamino)-purin-9-yl]-5-(4H-[1,2,4]triazol-3-yl)-tetrahydro-furan-3,4-diol formate], in test [1], the “A2a; EC50 values as a ratio” value is reported as 11.37. Further, the “A3; EC50 values as a ratio” value in test [2] is reported as over 353. Further, in test [3], the “A1; EC50 values as a ratio” value was found to be 1098.

Take `Cn1cnc(CCNc2nc(NCC(c3ccccc3)c3ccccc3)c3ncn([C@@H]4O[C@H](c5nnc[nH]5)[C@@H](O)[C@H]4O)c3n2)c1.O=CO` [Example 2, (2R,3R,4S,5R)-2-{6-(2,2-Diphenyl-ethylamino)-2-[2-(1-methyl-1H-imidazol-4-yl)-ethylamino]-purin-9-yl}-5-(4H-[1,2,4]triazol-3-yl)-tetrahydro-furan-3,4-diol formate]: in test [1], the “A2a; EC50 values as a ratio” value was 1.08. Besides, the “A3; EC50 values as a ratio” value in test [2] is on record as over 430. In addition, the “A1; EC50 values as a ratio” value in test [3] is on record as 1003.4.

On to `N=C(N)NCCNc1nc(NCC(c2ccccc2)c2ccccc2)c2ncn([C@@H]3O[C@H](c4nnc[nH]4)[C@@H](O)[C@H]3O)c2n1.O=CO` [Example 7, N-{2-[9-[3R,4S-Dihydroxy-5R-(4H-[1,2,4]triazol-3-yl)-tetrahydro-furan-2R-yl]-6-(2,2-diphenyl-ethylamino)-9H-purin-2-ylamino]-ethyl}-guanidine formate], for which the “A2a; EC50 values as a ratio” value in test [1] was 19.01. In test [2], the “A3; EC50 values as a ratio” value is over 368. Also, the “A1; EC50 values as a ratio” value in test [3] is recorded as 2577.

Regarding `O=CO.OC[C@H](Cc1ccccc1)Nc1nc(NCC(c2ccccc2)c2ccccc2)c2ncn([C@@H]3O[C@H](c4nnc[nH]4)[C@@H](O)[C@H]3O)c2n1` [Example 8, (2R,3R,4S,5R)-2-[6-(2,2-Diphenyl-ethylamino)-2-(1S-hydroxymethyl-2-phenyl-ethylamino)-purin-9-yl]-5-(4H-[1,2,4]triazol-3-yl)-tetrahydro-furan-3,4-diol formate], the “A2a; EC50 values as a ratio” value in test [1] is 26.74. For the same compound, the “A3; EC50 values as a ratio” value in test [2] is reported as over 326. Also, the “A1; EC50 values as a ratio” value in test [3] was 280.97.

As for `O=CO.O[C@@H]1[C@H](O)[C@@H](c2nnc[nH]2)O[C@H]1n1cnc2c(NCC(c3ccccc3)c3ccccc3)nc(NCCN3CCCCC3)nc21` [Example 9, (2R,3R,4S,5R)-2-[6-(2,2-Diphenyl-ethylamino)-2-(2-piperidin-1-yl-ethylamino)-purin-9-yl]-5-(4H-[1,2,4]triazol-3-yl)-tetrahydro-furan-3,4-diol formate], the “A2a; EC50 values as a ratio” value in test [1] was 8.13. Besides, the “A3; EC50 values as a ratio” value in test [2] is reported as over 472. Also, the “A1; EC50 values as a ratio” value in test [3] stood at 969.8.

As to `CC(C)[C@@H](CO)Nc1nc(NCC(c2ccccc2)c2ccccc2)c2ncn([C@@H]3O[C@H](c4nnc[nH]4)[C@@H](O)[C@H]3O)c2n1.O=CO` [Example 4, (2R,3R,4S,5R)-2-[6-(2,2-Diphenyl-ethylamino)-2-(1S-hydroxymethyl-2-methyl-propylamino)-purin-9-yl]-5-(4H-[1,2,4]triazol-3-yl)-tetrahydro-furan-3,4-diol formate], the “A2a; EC50 values as a ratio” value in test [1] came out at 3.79. Moreover, the “A3; EC50 values as a ratio” value in test [2] is given as over 306. Besides, the “A1; EC50 values as a ratio” value in test [3] was determined as 670.92.

Values taken from patent EP1090020B1, “2-(PURIN-9-YL)-TETRAHYDROFURAN-3,4-DIOL DERIVATIVES” (GLAXO GROUP LIMITED, priority 1998, dated 1999).
